pEC50, pIC50: −log10 of the molar value. Where two headings read alike, the source gives them in different places.
Columns and labels:
[1] = Metabolic stability in mouse liver microsomes; assay type: in vitro ADME
Method in brief: (§1)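 Depletion of test compound in NADPH-fortified liver microsomes (pH 7.4 phosphate buffer, 37 °C) is followed over 90 min. Remaining compound in quenched samples is quantified by LC-MS/MS against the time-zero level.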

[2] = Animal PK study in mouse via i.v., p.o. and s.c. administration; assay type: in vivo; details: for PK CLiv / PK Vdiv / PK t1/2iv: i.v.; for PK CLpo / PK Vdpo / PK t1/2po: p.o.
Description: All treated animals received a single dose of a test compound (either through i.v., p.o., or s.c. administration) according to the regimen shown in the following table:
For oral dose groups, appropriate amount of test compound was prepared in the following formulation carrier: 1% DMSO (increase to 5% maximum if necessary) and 0.5% Methycellulose. Each mouse or rat received by oral gavage 10 mL/kg of the formulation mixture.
For i.v. and s.c dose groups, appropriate amount of test compound was dissolved in 1% DMSO (increase to 5% maximum if necessary), 99% of 20% HP-β-Cyclodextron (w/v). The pH was adjusted accordingly. Each mouse or rat received 5 mL/kg of the formulation mixture. i.v. dose was administered by tail vein injection. Subcutaneous injection was administered over the shoulders, into the loose skin over the neck. At designated time points (e.g., i.v. and s.c.: 0.083, 0.25, 0.5, 1, 2, 4, 8 and 24 hrs; p.o.: 0.25, 0.5, 1, 2, 4, 8 and 24 hrs), systemic samples of blood (50 μL in mouse or 500 μL in rat) were collected by puncture (submandibular vein in mouse or jugular vein in rat) into vacutainers containing EDTA-K2 as anti-coagulant. The blood was centrifuged at 6000 rpm for 8 min at 4° C. to obtain plasma. All plasma samples were stored at −20° C. All plasma samples were added to acetonitrile for protein precipitation and quantitatively analyzed by LC-MS/MS.

[3] = Metabolic stability in human liver microsomes; assay type: in vitro ADME
Method in brief: as §1

[4] = target: T1, GHSR-1a (HEK293/GHSR1a cell line) (Homo sapiens, UniProt Q92847); experiment: Ghrelin antagonist potency (IC50) with calcium FLIPR assay, ghrelin 10 nM; assay type: cell-based; details: ghrelin antagonist potency
T1 construct: expressed in transfected cells; host or cells: HEK293/GHSR1a cell line
Method in brief: (§2)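 Potency values were estimated from dose-response curves of relative fluorescence, with calcium followed for 2 minutes after additions at t=20 sec. Agonism was tested with compound alone. Antagonism was tested with compound plus 10 nM ghrelin and scored as a reduction of the ghrelin signal.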

[5] = target: T2, recombinant human ghrelin receptor (HEK293/GRLN) (Homo sapiens, UniProt Q92847); experiment: Ghrelin inverse agonist potency (EC50) with IP-1 (IP-One HTRF) assay; assay type: cell-based; details: IP-1 assay
T2 construct: expressed in transfected cells
Method in brief: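 HEK293/GRLN cells were seeded 18-22 hours before the test, then exposed to compound in stimulation buffer for 1 hour at 37° C, 5% CO2. IP-1 was detected by IP-One HTRF (IP1-d2 plus Tb-cryptate, 1 hour RT), reading 620 and 665 nm; the inverse agonist EC50 was derived from this.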

[6] = target: T1, GHSR-1a (HEK293/GHSR1a cell line); experiment: Ghrelin agonist potency (EC50) with calcium FLIPR assay; assay type: cell-based; details: ghrelin agonist potency, read-out: Activity EC50/EMax
Method in brief: as §2

[7] = inverse agonist potency, read-out: EC50 (Activity)
[8] = ghrelin inverse agonist potency, read-out: Activity EC50

T1 sequence (Q92847 whole entry): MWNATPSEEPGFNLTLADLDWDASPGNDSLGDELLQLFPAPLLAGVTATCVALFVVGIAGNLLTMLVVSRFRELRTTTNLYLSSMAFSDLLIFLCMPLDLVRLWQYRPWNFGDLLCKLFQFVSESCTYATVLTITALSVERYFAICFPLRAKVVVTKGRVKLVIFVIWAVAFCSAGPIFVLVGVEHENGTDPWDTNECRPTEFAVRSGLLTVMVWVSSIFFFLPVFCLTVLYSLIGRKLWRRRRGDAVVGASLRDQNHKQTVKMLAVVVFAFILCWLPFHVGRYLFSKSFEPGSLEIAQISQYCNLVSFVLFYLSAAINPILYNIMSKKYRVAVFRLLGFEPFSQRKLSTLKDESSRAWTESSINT
T2 sequence (Q92847 whole entry): as above

Compound	Metabolic Stability Study M = mouse [1]	PK F [2]	PK CLiv [2]	PK Vdiv [2]	PK t1/2iv [2]	PK CLpo [2]	PK Vdpo [2]	PK t1/2po [2]	Metabolic Stability Study H = human [3]	pIC50 ([4]; read-out: IC50 (Activity))	pEC50 [5, 7]	pEC50 [6]	pIC50 ([4]; read-out: Activity IC50)	pEC50 [5, 8]
C[C@H](NC(=O)Nc1ccc(S(=O)(=O)Cc2ccc(CC(C)(C)N(C)C)cc2)cc1)c1cccc(Cl)c1Cl [H1010, (S)-1-(1-(2,3-dichlorophenyl)ethyl)-3-(4-((4-(2-(dimethylamino)-2-methylpropyl)benzyl)sulfonyl)phenyl)urea]	H = 40.5 M = 40.5 R = not reported D = not reported μL/min/mg	3.09%	55.7 mL/min/kg	1.39 L/kg	1.39 h	1803 mL/min/kg	169 L/kg	1.08 h	H = 40.5 M = 40.5 R = not reported D = not reported μL/min/mg	7.38	7.82	–	–	–
COc1ccc([C@H](C)NC(=O)Nc2ccc(S(=O)(=O)Cc3ccc4c(c3)CCN(C(C)=O)C4)cc2)c(Cl)c1Cl [H1025, (S)-1-(4-(((2-acetyl-1,2,3,4-tetrahydroisoquinolin-6-yl)methyl)sulfonyl)phenyl)-3-(1-(2,3-dichloro-4-methoxyphenyl)ethyl)urea]	159.5 µL/min/mg	5.92%	30.7 mL/min/kg	2.86 L/kg	1.08 h	514.8 mL/min/kg	94.83 L/kg	1.45 h	92.4 µL/min/mg	4.67	–	–	–	–
O=C(NCc1ccccc1Cl)Nc1ccc(S(=O)(=O)Cc2ccc3c(c2)CCNC3)cc1 [H1039, 1-(2-chlorobenzyl)-3-(4-(((1,2,3,4-tetrahydroisoquinolin-6-yl)methyl)sulfonyl)phenyl)urea]	13.5 µL/min/mg	0.6%	42.5 mL/min/kg	11.7 L/kg	3.18 h	5573 mL/min/kg	898 L/kg	1.86 h	< 10 µL/min/mg	6.95	7.48	–	–	–
C[C@@H](NC(=O)Nc1ccc(S(=O)(=O)Cc2ccc3c(c2)C(F)CNC3)cc1)c1cccc(Cl)c1Cl (stereo partly drawn) [H1537, 1-((R)-1-(2,3-dichlorophenyl)ethyl)-3-(4-(((4-fluoro-1,2,3,4-tetrahydroisoquinolin-6-yl)methyl)sulfonyl)phenyl)urea]	135.3 µL/min/mg	–	–	–	–	–	–	–	43.2 µL/min/mg	–	–	< 4.52	7.16	7.74
C[C@@H](NC(=O)Nc1ccc(S(=O)(=O)Cc2ccc3c(c2)C(F)CN(C)C3)cc1)c1cccc(Cl)c1Cl (stereo partly drawn) [H1538, 1-((R)-1-(2,3-dichlorophenyl)ethyl)-3-(4-(((4-fluoro-2-methyl-1,2,3,4-tetrahydroisoquinolin-6-yl)methyl)sulfonyl)phenyl)urea]	354 µL/min/mg	–	–	–	–	–	–	–	237.3 µL/min/mg	–	–	< 4.52	6.76	8.07

— patent publication US10501479B2, “Benzenesulfonyl-asymmetric ureas and medical uses thereof” (HELSINN HEALTHCARE SA, priority 2016, dated 2019)
